Experimental data: ChEMBL document CHEMBL5244206, “Recent encounters with atropisomerism in drug discovery” (Bioorg Med Chem Lett, 2018)

Target: ALK tyrosine kinase receptor (Homo sapiens, UniProt Q9UM73, L1196M)
Experiment: Binding affinity to human recombinant ALK L1196M mutant (1093 to 1411 residues) assessed as inhibition constant using 5'FAM-KKSRGDYMTMQIG-CONH2 peptide as substrate in presence of ATP by micro-fluidic mobility shift assay

Sequence of ALK tyrosine kinase receptor (Q9UM73 19-1620 L1196M limits assumed): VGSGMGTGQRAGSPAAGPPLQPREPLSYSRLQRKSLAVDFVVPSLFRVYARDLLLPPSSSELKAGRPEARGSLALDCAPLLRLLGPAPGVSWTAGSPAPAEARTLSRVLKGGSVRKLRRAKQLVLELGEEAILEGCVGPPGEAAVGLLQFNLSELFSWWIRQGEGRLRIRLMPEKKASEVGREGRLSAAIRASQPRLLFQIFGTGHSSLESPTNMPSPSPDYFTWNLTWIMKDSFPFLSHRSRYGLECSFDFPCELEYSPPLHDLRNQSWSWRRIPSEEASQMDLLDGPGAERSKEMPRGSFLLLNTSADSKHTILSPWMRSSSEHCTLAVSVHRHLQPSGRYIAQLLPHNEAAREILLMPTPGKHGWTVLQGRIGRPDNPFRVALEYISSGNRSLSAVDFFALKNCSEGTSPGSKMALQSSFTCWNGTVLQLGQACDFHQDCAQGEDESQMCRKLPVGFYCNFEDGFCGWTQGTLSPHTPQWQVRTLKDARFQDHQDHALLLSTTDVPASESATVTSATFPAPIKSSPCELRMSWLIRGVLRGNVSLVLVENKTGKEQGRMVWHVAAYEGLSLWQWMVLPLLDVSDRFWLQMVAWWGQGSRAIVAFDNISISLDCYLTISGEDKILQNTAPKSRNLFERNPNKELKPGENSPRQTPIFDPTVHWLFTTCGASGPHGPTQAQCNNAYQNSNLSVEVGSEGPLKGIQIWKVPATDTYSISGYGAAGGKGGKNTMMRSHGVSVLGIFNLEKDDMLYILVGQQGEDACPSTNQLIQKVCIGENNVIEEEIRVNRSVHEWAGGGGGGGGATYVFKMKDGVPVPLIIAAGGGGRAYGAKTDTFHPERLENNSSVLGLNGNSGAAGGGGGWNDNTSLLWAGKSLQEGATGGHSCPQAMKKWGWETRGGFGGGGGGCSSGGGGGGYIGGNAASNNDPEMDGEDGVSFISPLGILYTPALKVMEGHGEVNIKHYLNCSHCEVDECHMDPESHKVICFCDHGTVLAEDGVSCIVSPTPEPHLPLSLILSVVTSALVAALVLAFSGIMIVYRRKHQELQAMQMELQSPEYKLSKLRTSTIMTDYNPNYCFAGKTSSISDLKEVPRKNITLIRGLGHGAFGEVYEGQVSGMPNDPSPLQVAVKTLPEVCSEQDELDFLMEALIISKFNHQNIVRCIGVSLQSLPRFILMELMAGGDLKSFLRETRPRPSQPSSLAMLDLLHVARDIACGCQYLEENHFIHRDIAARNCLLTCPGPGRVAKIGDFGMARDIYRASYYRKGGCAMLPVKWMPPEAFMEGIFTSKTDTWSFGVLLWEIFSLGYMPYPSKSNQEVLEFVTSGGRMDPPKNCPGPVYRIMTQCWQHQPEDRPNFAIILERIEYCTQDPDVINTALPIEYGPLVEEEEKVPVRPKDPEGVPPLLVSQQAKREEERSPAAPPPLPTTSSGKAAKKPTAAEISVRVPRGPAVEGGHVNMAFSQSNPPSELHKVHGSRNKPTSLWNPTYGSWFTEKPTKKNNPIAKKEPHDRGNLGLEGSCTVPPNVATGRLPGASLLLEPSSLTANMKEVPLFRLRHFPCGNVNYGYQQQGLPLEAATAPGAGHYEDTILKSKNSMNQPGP

Ki: 273 nM
Structure (SMILES): CN1Cc2nn(C)c(C#N)c2-c2cnc(N)c(c2)OCc2cc(F)ccc2C1=O
